In experiment [1] the target is Synaptic vesicular amine transporter (Rattus norvegicus, UniProt Q01827). It counts as functional.
The target in experiment [2] is Sodium channel protein type 5 subunit alpha (Homo sapiens, UniProt Q14524). It counts as functional, cell-based.
Experiment [3] concerns the target Voltage-dependent L-type calcium channel subunit alpha-1C (Homo sapiens, UniProt Q13936). It counts as functional, cell-based.
Experiment [4] concerns the target T1, Muscarinic acetylcholine receptor M1 (Homo sapiens, UniProt P11229).
T1 sequence (P11229 whole entry): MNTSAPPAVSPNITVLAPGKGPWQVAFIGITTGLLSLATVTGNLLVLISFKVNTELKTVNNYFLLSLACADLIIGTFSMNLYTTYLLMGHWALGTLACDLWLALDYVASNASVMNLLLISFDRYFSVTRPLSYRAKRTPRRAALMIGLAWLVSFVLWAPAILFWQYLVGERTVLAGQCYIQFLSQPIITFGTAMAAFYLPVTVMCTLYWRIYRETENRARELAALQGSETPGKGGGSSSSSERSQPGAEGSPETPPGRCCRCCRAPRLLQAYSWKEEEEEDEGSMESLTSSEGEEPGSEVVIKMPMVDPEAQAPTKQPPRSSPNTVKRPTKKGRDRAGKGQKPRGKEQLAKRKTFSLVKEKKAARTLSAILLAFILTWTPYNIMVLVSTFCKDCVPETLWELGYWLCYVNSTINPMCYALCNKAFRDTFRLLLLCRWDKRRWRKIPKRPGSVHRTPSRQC
It counts as functional, cell-based.

Experiment [5] deals with T2, Androgen receptor (Rattus norvegicus, UniProt P15207).
T2 sequence (P15207 whole entry): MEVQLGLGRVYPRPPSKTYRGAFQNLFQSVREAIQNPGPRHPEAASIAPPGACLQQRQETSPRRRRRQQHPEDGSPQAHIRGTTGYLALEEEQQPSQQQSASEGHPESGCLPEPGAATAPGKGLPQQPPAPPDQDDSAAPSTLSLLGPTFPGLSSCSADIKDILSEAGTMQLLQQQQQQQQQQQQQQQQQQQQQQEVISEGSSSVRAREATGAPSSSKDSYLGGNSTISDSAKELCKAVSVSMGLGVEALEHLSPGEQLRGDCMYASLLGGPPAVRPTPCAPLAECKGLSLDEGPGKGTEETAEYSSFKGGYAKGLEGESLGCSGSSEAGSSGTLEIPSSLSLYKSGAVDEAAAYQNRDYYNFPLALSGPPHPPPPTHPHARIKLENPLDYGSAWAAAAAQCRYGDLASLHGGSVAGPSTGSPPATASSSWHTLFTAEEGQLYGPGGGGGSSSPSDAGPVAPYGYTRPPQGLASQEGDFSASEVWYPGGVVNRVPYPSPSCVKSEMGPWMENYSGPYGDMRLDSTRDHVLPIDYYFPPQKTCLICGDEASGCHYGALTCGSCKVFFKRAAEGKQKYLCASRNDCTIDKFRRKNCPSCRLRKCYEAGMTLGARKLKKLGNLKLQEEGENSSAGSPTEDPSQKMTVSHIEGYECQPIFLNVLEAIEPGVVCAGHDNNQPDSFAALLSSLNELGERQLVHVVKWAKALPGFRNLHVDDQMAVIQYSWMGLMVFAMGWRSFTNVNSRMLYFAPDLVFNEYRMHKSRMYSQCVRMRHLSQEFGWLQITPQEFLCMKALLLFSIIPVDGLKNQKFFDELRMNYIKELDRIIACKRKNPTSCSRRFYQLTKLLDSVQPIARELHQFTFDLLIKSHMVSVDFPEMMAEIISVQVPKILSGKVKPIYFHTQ
It counts as functional.

The target in experiment [6] is T2, Androgen receptor. It counts as functional. The source holds these as a separate data set.
For experiment [7], the target named is T3, Prostaglandin G/H synthase 1 (Rattus norvegicus, UniProt Q63921).
T3 sequence (Q63921 whole entry): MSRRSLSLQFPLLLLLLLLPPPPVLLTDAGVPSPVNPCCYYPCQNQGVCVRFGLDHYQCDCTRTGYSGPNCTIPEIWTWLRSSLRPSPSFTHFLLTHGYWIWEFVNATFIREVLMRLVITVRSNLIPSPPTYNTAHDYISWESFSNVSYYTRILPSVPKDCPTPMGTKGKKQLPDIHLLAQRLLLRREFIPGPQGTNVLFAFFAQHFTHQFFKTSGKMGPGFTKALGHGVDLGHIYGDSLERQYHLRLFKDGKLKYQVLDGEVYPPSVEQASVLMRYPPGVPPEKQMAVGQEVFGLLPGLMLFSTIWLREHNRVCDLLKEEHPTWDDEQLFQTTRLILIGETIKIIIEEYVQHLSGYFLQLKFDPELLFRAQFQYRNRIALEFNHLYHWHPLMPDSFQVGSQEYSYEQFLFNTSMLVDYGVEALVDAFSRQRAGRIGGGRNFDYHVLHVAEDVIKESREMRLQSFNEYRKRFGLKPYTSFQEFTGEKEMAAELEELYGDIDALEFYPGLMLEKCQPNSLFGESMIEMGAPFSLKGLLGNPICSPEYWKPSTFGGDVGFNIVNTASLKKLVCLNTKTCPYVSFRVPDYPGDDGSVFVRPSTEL
It counts as functional.

Experiment [8] addresses Vascular endothelial growth factor receptor 2 (Homo sapiens, UniProt P35968). It counts as functional.
The next experiment concerns the target T4, Thromboxane A2 receptor (Homo sapiens, UniProt P21731).
T4 sequence (P21731 whole entry): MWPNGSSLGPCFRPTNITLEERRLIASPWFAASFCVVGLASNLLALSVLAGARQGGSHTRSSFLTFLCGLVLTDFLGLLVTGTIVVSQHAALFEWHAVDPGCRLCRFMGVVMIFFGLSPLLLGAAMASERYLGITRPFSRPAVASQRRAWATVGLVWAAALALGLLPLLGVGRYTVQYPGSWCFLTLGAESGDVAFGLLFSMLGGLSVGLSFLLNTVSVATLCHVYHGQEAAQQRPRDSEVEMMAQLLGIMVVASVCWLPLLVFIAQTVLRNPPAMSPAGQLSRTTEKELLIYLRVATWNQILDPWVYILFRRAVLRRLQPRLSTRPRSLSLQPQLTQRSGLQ
It counts as functional.
Further: assay procedure not described here.

Sodium channel protein type 5 subunit alpha, sequence (Q14524 whole entry): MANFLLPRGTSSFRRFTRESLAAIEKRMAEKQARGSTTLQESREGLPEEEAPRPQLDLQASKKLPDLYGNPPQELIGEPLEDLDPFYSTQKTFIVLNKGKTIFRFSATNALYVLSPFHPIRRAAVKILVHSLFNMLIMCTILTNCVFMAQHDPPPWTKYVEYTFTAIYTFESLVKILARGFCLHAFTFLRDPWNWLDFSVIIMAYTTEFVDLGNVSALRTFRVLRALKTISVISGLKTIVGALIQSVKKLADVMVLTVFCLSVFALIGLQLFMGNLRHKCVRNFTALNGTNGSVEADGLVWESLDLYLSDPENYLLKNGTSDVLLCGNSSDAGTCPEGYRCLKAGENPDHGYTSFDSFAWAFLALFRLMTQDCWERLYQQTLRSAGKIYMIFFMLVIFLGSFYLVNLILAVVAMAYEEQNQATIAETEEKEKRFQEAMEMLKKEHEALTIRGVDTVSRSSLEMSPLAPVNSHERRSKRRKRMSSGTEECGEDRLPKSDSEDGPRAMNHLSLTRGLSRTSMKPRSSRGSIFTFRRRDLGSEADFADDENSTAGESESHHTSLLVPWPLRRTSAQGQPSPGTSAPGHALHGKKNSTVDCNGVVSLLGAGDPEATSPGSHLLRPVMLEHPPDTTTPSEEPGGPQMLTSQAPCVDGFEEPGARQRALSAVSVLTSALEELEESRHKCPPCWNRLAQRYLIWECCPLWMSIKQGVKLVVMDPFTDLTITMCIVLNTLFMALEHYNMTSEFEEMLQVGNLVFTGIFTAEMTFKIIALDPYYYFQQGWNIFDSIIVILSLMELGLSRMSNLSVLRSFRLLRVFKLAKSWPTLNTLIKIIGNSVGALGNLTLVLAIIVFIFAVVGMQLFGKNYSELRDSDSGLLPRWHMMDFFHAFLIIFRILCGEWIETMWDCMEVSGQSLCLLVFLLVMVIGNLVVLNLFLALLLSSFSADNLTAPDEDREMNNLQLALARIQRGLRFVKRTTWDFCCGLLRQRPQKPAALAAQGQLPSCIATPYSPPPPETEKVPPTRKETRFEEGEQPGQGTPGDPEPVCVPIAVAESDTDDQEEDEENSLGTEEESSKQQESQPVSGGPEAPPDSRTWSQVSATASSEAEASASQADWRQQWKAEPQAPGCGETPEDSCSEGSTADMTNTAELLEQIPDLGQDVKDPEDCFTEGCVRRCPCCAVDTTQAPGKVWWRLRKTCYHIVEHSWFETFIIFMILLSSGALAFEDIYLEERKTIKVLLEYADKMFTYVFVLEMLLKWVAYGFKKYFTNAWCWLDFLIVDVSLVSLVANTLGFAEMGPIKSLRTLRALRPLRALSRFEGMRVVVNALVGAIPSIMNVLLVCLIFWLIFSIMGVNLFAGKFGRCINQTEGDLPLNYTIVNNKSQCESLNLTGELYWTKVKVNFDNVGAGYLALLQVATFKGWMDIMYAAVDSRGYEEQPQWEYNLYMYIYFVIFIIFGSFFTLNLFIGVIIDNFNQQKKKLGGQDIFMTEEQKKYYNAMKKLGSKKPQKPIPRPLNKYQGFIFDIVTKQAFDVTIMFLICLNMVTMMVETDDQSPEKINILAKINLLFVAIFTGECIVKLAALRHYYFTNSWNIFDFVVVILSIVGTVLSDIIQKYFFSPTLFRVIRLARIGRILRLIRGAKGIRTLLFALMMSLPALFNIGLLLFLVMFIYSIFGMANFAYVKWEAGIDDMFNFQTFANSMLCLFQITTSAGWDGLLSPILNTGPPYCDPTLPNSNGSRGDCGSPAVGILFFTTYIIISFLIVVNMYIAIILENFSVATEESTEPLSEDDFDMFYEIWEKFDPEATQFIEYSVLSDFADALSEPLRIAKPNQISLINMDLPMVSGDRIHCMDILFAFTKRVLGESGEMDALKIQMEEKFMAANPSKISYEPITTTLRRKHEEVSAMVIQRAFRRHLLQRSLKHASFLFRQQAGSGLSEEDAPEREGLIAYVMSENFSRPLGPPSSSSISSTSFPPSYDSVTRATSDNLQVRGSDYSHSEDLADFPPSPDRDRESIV
Synaptic vesicular amine transporter, sequence (Q01827 whole entry): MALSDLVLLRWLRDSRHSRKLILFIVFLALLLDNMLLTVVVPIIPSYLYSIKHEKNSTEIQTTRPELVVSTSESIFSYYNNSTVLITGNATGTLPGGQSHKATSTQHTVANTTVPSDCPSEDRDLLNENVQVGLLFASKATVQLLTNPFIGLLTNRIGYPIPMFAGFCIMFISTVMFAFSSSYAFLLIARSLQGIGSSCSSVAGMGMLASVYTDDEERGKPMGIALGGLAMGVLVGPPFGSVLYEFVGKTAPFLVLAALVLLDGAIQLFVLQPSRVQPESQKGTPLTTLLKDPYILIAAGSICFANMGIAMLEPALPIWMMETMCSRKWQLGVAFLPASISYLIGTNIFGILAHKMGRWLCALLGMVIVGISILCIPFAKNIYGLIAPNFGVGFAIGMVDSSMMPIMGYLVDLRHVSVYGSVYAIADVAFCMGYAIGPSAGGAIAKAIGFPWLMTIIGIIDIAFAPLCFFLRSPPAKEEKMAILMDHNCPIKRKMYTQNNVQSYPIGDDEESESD
Vascular endothelial growth factor receptor 2, sequence (P35968 whole entry): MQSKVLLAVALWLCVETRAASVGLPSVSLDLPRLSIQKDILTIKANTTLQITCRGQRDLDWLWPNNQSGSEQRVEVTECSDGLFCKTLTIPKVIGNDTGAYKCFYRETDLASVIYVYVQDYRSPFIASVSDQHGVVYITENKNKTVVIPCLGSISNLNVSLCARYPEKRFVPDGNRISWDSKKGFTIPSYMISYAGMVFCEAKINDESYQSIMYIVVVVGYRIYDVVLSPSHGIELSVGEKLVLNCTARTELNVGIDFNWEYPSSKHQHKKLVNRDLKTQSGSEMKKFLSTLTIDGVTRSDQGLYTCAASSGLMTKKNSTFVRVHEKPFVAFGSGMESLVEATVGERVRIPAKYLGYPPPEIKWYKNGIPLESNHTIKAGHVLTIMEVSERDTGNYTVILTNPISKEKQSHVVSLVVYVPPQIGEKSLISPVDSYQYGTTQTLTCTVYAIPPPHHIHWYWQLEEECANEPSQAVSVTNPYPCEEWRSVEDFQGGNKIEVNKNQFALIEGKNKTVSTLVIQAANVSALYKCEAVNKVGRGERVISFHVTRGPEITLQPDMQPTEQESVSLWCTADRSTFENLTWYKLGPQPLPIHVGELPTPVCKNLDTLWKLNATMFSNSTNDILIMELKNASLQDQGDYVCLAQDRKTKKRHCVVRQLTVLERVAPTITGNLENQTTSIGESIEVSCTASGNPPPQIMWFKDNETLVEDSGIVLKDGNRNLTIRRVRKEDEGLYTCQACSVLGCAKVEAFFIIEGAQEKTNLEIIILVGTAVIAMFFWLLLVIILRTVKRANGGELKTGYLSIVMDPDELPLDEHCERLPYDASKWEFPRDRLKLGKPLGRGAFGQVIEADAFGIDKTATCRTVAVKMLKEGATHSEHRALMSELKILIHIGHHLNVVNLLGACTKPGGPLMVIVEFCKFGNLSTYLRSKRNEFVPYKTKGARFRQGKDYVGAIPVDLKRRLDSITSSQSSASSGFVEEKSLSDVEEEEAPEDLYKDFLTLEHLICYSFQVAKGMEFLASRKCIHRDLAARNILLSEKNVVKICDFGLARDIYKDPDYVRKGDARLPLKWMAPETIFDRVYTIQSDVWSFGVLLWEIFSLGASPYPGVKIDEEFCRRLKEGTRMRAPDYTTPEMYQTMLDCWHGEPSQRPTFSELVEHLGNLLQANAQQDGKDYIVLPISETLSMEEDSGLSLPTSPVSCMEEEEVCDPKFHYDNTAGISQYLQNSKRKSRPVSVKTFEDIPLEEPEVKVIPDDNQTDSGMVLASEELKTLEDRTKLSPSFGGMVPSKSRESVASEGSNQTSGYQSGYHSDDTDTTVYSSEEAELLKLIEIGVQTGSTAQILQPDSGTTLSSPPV

Turning to `CC[C@@H](C(N)=O)N1CCCC1=O`, the AC50 is above 30 µM in experiment [1], above 50 µM in [2] and above 50 µM in experiment [3].

On to `NC1CCN(c2c(F)cc3c(=O)c(C(=O)O)cn(C4CC4)c3c2Cl)C1` (centres undefined) [CLINAFLOXACIN], for which half-maximal activity in experiment [4] (AC50) was put at 40 µM.

Regarding `CN(C)CC/C=C1\c2ccccc2CSc2ccccc21` [DOTHIEPIN], the AC50 at Androgen receptor [5] and on Androgen receptor [6] was above 30 µM in each case.

`CCCCCNC(=N)N/N=C/c1c[nH]c2ccc(OC)cc12` [TEGASEROD]: in [7], the AC50 is above 30 µM.

As for `CCOc1ccccc1OCC1CNCCO1` (centres undefined) [VILOXAZINE], the half-maximal activity concentration (AC50) (in experiment [8]; on Thromboxane A2 receptor) was above 30 µM in each case.

As a reminder, the AC50 is the concentration at which the activity in the assay is half-maximal.
